Like-named read-outs stand apart in the source and are kept apart here. Where only a bound is given, the exact number is not on record here.

This note sets out measurements from patent US20250332173A1, “COMPOUNDS AND METHODS FOR MODULATING NUCLEIC ACID SPLICING” (REMIX THERAPEUTICS INC., priority 2021, published 2025).

What all share (assay type): cell-based, human
One assay deals with HTT. Put plainly: HiBiT protein abundance assay, HTT HiBiT K562 cell line. The note with it: HiBiT K562 cell line, 24 hours, top dose 10 μM; read-out: Effect on protein abundance, HTT (IC50 category). The procedure, abridged: (§1)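 Tagged-protein abundance measured by split-NanoBiT luminescence after lysis, following 24 h compound exposure (37° C; 10 μM top, 3-fold, 10 points; DMSO ≤0.25%) of HiBiT knock-in K562 cells. Percent response vs DMSO and unmodified-cell controls; 4-parameter logistic interpolation at 50% gave IC50.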

The test system of a further assay is MYB. Put plainly: HiBiT protein abundance assay, MYB HiBiT K562 cell line. The note with it: HiBiT K562 cell line, 24 hours, top dose 10 μM; read-out: Effect on protein abundance, MYB (IC50 category). An outline of the steps:
as §1

Another assay relates to HTT mRNA. Put plainly: RT-qPCR splicing assay, HTT canonical junction (CJ) and alternative junction (AJ) mRNA. To be noted: for AC50: increase in HTT alternative junction (AJ) mRNA, read-out: HTT AJ AC50. The procedure, abridged:
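Read-out is one-step RT-qPCR on cell lysates detecting the exon-exon junction of each isoform, normalized to a housekeeping gene (PPIA in A673, GAPDH or GUSB in K562).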

Setting [1] is: Homo sapiens, decrease in HTT canonical junction (CJ) mRNA, RT-qPCR, read-out: HTT CJ IC50.
Where [2] appears, read: Homo sapiens, Table 5 panel, canonical junction qPCR, compound concentration having 50% response in CJ decrease, read-out: HTT IC50 (decrease in CJ mRNA levels).

As for `Cc1cn2nc(-c3cc(F)c4c(=O)n(C5CCNCC5)cnc4c3)cc(C)c2n1` [Compound 243], the IC50 in the assay on HTT, in the assay on MYB, in the assay with HTT mRNA (setting [1]) and in the assay with HTT mRNA (setting [2]) was less than 100 nM in each case. For the same compound, in the assay with HTT mRNA (Homo sapiens, RT-qPCR), the AC50 was less than 100 nM.
On to `Cc1cn2cc(-c3ccc4c(=O)n(C5CCNCC5)cnc4c3)c(C)cc2n1` [Compound 244], for which the half-maximal inhibitory concentration (IC50) in the assay with HTT, with MYB, in the assay with HTT mRNA (setting [1]) and in the assay on HTT mRNA (setting [2]) was more than 10000 nM in each case. Moreover, the AC50 in the assay on HTT mRNA (Homo sapiens, RT-qPCR) was more than 10000 nM.
Regarding `Cc1nc2c(F)cc(-c3ccc4c(=O)n(C5CCNCC5)cnc4c3)cc2o1` [Compound 245], the IC50 in the assay on HTT, in the assay on MYB, with HTT mRNA (setting [1]) and with HTT mRNA (setting [2]) was 100 to 1000 nM each time. For the same compound, the AC50 with HTT mRNA (Homo sapiens, RT-qPCR) is 100 to 1000 nM.
On to `Cc1cn2cc(-c3ccc4c(=O)n(C5CCN(C)CC5)cnc4c3)c(C)cc2n1` [Compound 246], for which the IC50 with HTT, in the assay with MYB, with HTT mRNA (setting [1]) and with HTT mRNA (setting [2]) was 1000 to 10000 nM each time. Besides, the AC50 in the assay on HTT mRNA (Homo sapiens, RT-qPCR) is 1000 to 10000 nM.
In the case of `Cc1cn2cc(-c3ccc4c(c3)CCN(C3CCNCC3)C4=O)cc(F)c2n1` [Compound 247], the IC50 in the assay on HTT lay within 100 to 1000 nM; in the assay with MYB it was 100 to 1000 nM; in the assay on HTT mRNA (setting [1]), 1000 to 10000 nM; in the assay on HTT mRNA (setting [2]), 1000 to 10000 nM. Also, the AC50 in the assay with HTT mRNA (Homo sapiens, RT-qPCR) lay within 1000 to 10000 nM.
As for `Cc1cn2cc(-c3ccc4c(=O)n(C5CCNCC5)ncc4c3)cc(F)c2n1` [Compound 248], the IC50 in the assay with HTT is less than 100 nM; with MYB it was less than 100 nM; in the assay with HTT mRNA (setting [1]), 100 to 1000 nM; in the assay on HTT mRNA (setting [2]), less than 100 nM. In addition, the concentration at half-maximal activity (AC50) in the assay on HTT mRNA (Homo sapiens, RT-qPCR) was less than 100 nM.
As to `Cn1cc2cc(-c3ccc4c(=O)n(C5CCNCC5)ncc4c3)cc(F)c2n1` [Compound 249], the half-inhibitory concentration (IC50) with HTT, in the assay on MYB, with HTT mRNA (setting [1]) and in the assay with HTT mRNA (setting [2]) was 1000 to 10000 nM each time. For the same compound, the AC50 with HTT mRNA (Homo sapiens, RT-qPCR) is 1000 to 10000 nM.
In the case of `Cc1nc2c(F)cc(-c3ccc4c(=O)n(C5CCNCC5)ncc4c3)cc2o1` [Compound 250], the concentration for half-maximal inhibition (IC50) in the assay with HTT, with MYB, in the assay with HTT mRNA (setting [1]) and with HTT mRNA (setting [2]) was less than 100 nM throughout. In addition, in the assay on HTT mRNA (Homo sapiens, RT-qPCR), the AC50 was less than 100 nM.
With `Cc1cc(-c2ccc3c(=O)n(C4CCNCC4)ncc3c2)cc2cn(C)nc12` [Compound 251], the half-maximal inhibitory concentration (IC50) in the assay with HTT, in the assay with MYB, in the assay with HTT mRNA (setting [1]) and in the assay with HTT mRNA (setting [2]) was 100 to 1000 nM throughout. Besides, the concentration at half-maximal activity (AC50) in the assay with HTT mRNA (Homo sapiens, RT-qPCR) lay within 100 to 1000 nM.
With `Cc1cn2cc(-c3ccc4c(c3)CCN(C3CCNCC3)C4=O)cc(C(F)(F)F)c2n1` [Compound 252], the IC50 in the assay on HTT was more than 10000 nM; in the assay on MYB, 1000 to 10000 nM; in the assay with HTT mRNA (setting [1]), more than 10000 nM; in the assay on HTT mRNA (setting [2]), more than 10000 nM. Further, the AC50 in the assay on HTT mRNA (Homo sapiens, RT-qPCR) is more than 10000 nM.
In the case of `Cc1nc2c(F)cc(-c3ccc4c(=O)n(C5CCNCC5)ncc4c3)cc2s1` [Compound 253], the IC50 with HTT, in the assay on MYB, with HTT mRNA (setting [1]) and with HTT mRNA (setting [2]) was 1000 to 10000 nM in each case. In addition, in the assay with HTT mRNA (Homo sapiens, RT-qPCR), the AC50 lay in the range of 1000 to 10000 nM.
As for `Cc1cn2cc(-c3ccc4c(=O)n(C5CCNCC5)ncc4c3)c(C)cc2n1` [Compound 254], the IC50 in the assay with HTT, in the assay on MYB, in the assay with HTT mRNA (setting [1]) and in the assay on HTT mRNA (setting [2]) was 1000 to 10000 nM throughout. Further, in the assay on HTT mRNA (Homo sapiens, RT-qPCR), the AC50 lay within 1000 to 10000 nM.
In the case of `Cc1cn2cc(-c3ccc4c(=O)n(C5CCNCC5)ncc4c3)ncc2n1` [Compound 255], the IC50 was more than 10000 nM in the assay with HTT, more than 10000 nM in the assay with MYB, 1000 to 10000 nM in the assay on HTT mRNA (setting [1]) and 1000 to 10000 nM in the assay with HTT mRNA (setting [2]). Besides, the AC50 in the assay on HTT mRNA (Homo sapiens, RT-qPCR) lay in the range of 1000 to 10000 nM.
Consider `Cc1cn2cc(-c3ccc4c(=O)n(C5CCNCC5)ncc4c3)cc(Cl)c2n1` [Compound 256], for which the IC50 in the assay with HTT, in the assay with MYB, in the assay with HTT mRNA (setting [1]) and with HTT mRNA (setting [2]) was 100 to 1000 nM throughout. In addition, the AC50 in the assay on HTT mRNA (Homo sapiens, RT-qPCR) lay in the range of 100 to 1000 nM.
`Cc1cn2cc(-c3ccc4c(=O)n(C5CCNCC5)ncc4c3)cc(C)c2n1` [Compound 257]: the IC50 with HTT, with MYB, with HTT mRNA (setting [1]) and with HTT mRNA (setting [2]) was 100 to 1000 nM throughout. Also, in the assay on HTT mRNA (Homo sapiens, RT-qPCR), the AC50 was in the range of 100 to 1000 nM.
`Cc1cn2nc(-c3ccc4c(=O)n(C5CCNCC5)ncc4c3)nc2c(C)n1` [Compound 259]: the concentration for half-maximal inhibition (IC50) in the assay with HTT, with MYB, in the assay on HTT mRNA (setting [1]) and in the assay on HTT mRNA (setting [2]) was 100 to 1000 nM in each case. Further, the half-maximal activity concentration (AC50) with HTT mRNA (Homo sapiens, RT-qPCR) lay within 100 to 1000 nM.
Consider `Cc1cn2nc(-c3ccc4c(=O)n(C5CCNCC5)ncc4c3)cc2c(C)n1` [Compound 260], for which the 50% inhibitory concentration (IC50) in the assay on HTT, in the assay with MYB, in the assay on HTT mRNA (setting [1]) and with HTT mRNA (setting [2]) was 100 to 1000 nM throughout. The AC50 in the assay with HTT mRNA (Homo sapiens, RT-qPCR) was in the range of 100 to 1000 nM.
As for `O=c1c2ccc(-c3cn[nH]c3)cc2cnn1C1CCNCC1` [Compound 261], the IC50 in the assay with HTT, in the assay with MYB, with HTT mRNA (setting [1]) and in the assay on HTT mRNA (setting [2]) was more than 10000 nM each time. For the same compound, the half-maximal activity concentration (AC50) in the assay with HTT mRNA (Homo sapiens, RT-qPCR) was more than 10000 nM.
In the case of `Cc1cn2cc(-c3ccc4c(=O)n(C5CCNCC5)ncc4c3)cc(C(F)(F)F)c2n1` [Compound 262], the IC50 with HTT fell in the range of 1000 to 10000 nM; in the assay with MYB it was 100 to 1000 nM; in the assay with HTT mRNA (setting [1]), 1000 to 10000 nM; with HTT mRNA (setting [2]), 1000 to 10000 nM. The AC50 in the assay on HTT mRNA (Homo sapiens, RT-qPCR) lay in the range of 1000 to 10000 nM.
As to `Cn1cc2ccc(-c3ccc4c(=O)n(C5CCNCC5)ncc4c3)cc2n1` [Compound 263], the IC50 with HTT, with MYB, in the assay with HTT mRNA (setting [1]) and with HTT mRNA (setting [2]) was more than 10000 nM each time. Besides, in the assay with HTT mRNA (Homo sapiens, RT-qPCR), the AC50 was more than 10000 nM.
As to `Cc1cn2nc(-c3ccc4c(=O)n(C5CCNC5)ncc4c3)cc(C)c2n1` (stereo not shown) [Compound 264], the half-inhibitory concentration (IC50) in the assay with HTT, in the assay with MYB, in the assay with HTT mRNA (setting [1]) and with HTT mRNA (setting [2]) was 1000 to 10000 nM each time. For the same compound, in the assay with HTT mRNA (Homo sapiens, RT-qPCR), the AC50 fell in the range of 1000 to 10000 nM.
Take `Cc1cn2nc(-c3ccc4c(=O)n(C5CCN(C)CC5)ncc4c3)cc(C)c2n1` [Compound 265]: the half-maximal inhibitory concentration (IC50) with HTT was less than 100 nM; in the assay with MYB, 100 to 1000 nM; in the assay on HTT mRNA (setting [1]), less than 100 nM; in the assay on HTT mRNA (setting [2]) it was less than 100 nM. Further, the half-maximal activity concentration (AC50) in the assay on HTT mRNA (Homo sapiens, RT-qPCR) is less than 100 nM.
Regarding `Cc1cn2nc(-c3ccc4c(=O)n([C@@H]5CCNC6(CC6)C5)cnc4c3)cc(C)c2n1` [Compound 444], the concentration for half-maximal inhibition (IC50) with HTT is less than 100 nM; in the assay on MYB, 100 to 1000 nM; in the assay with HTT mRNA (Table 5 panel, canonical junction qPCR, compound concentration having 50% response in CJ decrease, read-out: HTT IC50 (decrease in CJ mRNA levels)), 100 to 1000 nM; in the assay on HTT mRNA (decrease in HTT canonical junction (CJ) mRNA, RT-qPCR, read-out: HTT CJ IC50), 100 to 1000 nM. Moreover, the half-maximal activity concentration (AC50) with HTT mRNA (RT-qPCR) is 100 to 1000 nM.
